Test results published in patent publication US20250312258A1, “2,3-PYRROLIDINEDIONE CONJUGATES AND METHODS OF USING THEREOF” (North Carolina State University, priority 2022, published 2025).
≈ marks a conversion by molar mass, not a printed value. Like-named read-outs stand apart in the source and are kept apart here.

What was measured:
Assay type in all cases: cell-based
MSSA = assay: MIC against MSSA strain panel; conditions: Staphylococcus aureus, the 4th table
ATCC 29212 E. faecalis = assay: MIC against ATCC 29212 E. faecalis
S. pneumoniae = assay: MIC against S. pneumoniae strain panel; conditions: Streptococcus pneumoniae
Group A Strep = assay: MIC against Group A Strep strain panel
Group B Strep = assay: MIC against Group B Strep strain panel
E. coli = assay: MIC against E. coli strains

CN[C@H](CC(C)C)C(=O)N[C@H]1C(=O)N[C@@H](CC(N)=O)C(=O)N[C@H]2C(=O)N[C@H]3C(=O)N[C@H](C(=O)N[C@H](C(=O)O)c4cc(O)cc(O)c4-c4cc3ccc4O)[C@H](O)c3ccc(c(Cl)c3)Oc3cc2cc(c3O[C@@H]2O[C@H](CO)[C@@H](O)[C@H](O)[C@H]2O[C@H]2C[C@](C)(N)[C@H](O)[C@H](C)O2)Oc2ccc(cc2Cl)[C@H]1O [Vancomycin, vancomycin, reference compound]
MIC (MSSA; VGP16-101 MSSA): 1 µg/mL (≈ 0.69 µM)
MIC (MSSA; VGP16-116 MSSA): 0.5 µg/mL (≈ 0.345 µM)
MIC (MSSA; VGP16-117 MSSA): 0.5 µg/mL (≈ 0.345 µM)
MIC (ATCC 29212 E. faecalis; ATCC 29212 E. faecalis, the 6th table): 2 µg/mL (≈ 1.38 µM)
MIC (ATCC 29212 E. faecalis; Enterococcus faecalis, ATCC29212): 2 µg/mL (≈ 1.38 µM)
MIC (S. pneumoniae; ATCC49619, ATCC 49619 S. pneumoniae, CA-MHB w/5% LHB, the 4th table): 0.25 µg/mL (≈ 0.173 µM)
MIC (S. pneumoniae; ATCC49619, ATCC 49619 S. pneumoniae, the 7th table): ≤ 0.125 µg/mL
MIC (S. pneumoniae; CO314937 S. pneumoniae, CA-MHB w/5% LHB, the 4th table): 0.25 µg/mL (≈ 0.173 µM)
MIC (S. pneumoniae; CT3-5008 S. pneumoniae, the 7th table): 0.25 µg/mL (≈ 0.173 µM)
MIC (S. pneumoniae; CT3-5803 S. pneumoniae, the 7th table): 0.25 µg/mL (≈ 0.173 µM)
MIC (S. pneumoniae; CT3-8501 S. pneumoniae, the 7th table): 0.25 µg/mL (≈ 0.173 µM)
MIC (S. pneumoniae; CT4-3048 S. pneumoniae, the 7th table): 0.5 µg/mL (≈ 0.345 µM)
MIC (S. pneumoniae; CT4-9046 S. pneumoniae, the 7th table): 0.25 µg/mL (≈ 0.173 µM)
MIC (S. pneumoniae; CT4-9693 S. pneumoniae, the 7th table): 0.25 µg/mL (≈ 0.173 µM)
MIC (S. pneumoniae; CT5-6541 S. pneumoniae, the 7th table): 0.25 µg/mL (≈ 0.173 µM)
MIC (S. pneumoniae; CT5-8032 S. pneumoniae, the 7th table): 0.5 µg/mL (≈ 0.345 µM)
MIC (S. pneumoniae; CT5-9124 S. pneumoniae, the 7th table): 0.25 µg/mL (≈ 0.173 µM)
MIC (S. pneumoniae; CT6-0670 S. pneumoniae, the 7th table): 0.5 µg/mL (≈ 0.345 µM)
MIC (S. pneumoniae; CT6-7691 S. pneumoniae, the 7th table): 0.25 µg/mL (≈ 0.173 µM)
MIC (S. pneumoniae; CT0200-2241 S. pneumoniae, the 7th table): 0.25 µg/mL (≈ 0.173 µM)
MIC (S. pneumoniae; CT0200-2730 S. pneumoniae, the 7th table): 0.25 µg/mL (≈ 0.173 µM)
MIC (S. pneumoniae; MD77773 S. pneumoniae, CA-MHB w/5% LHB, the 4th table): 0.5 µg/mL (≈ 0.345 µM)
MIC (Group A Strep): 0.25 µg/mL (≈ 0.173 µM)
MIC (Group A Strep; 2007-11 Group A Strep, the 8th table): 0.25 µg/mL (≈ 0.173 µM)
MIC (Group A Strep; 2007-28 Group A Strep, the 8th table): 0.25 µg/mL (≈ 0.173 µM)
MIC (Group A Strep; 2007-49 Group A Strep, the 8th table): 0.25 µg/mL (≈ 0.173 µM)
MIC (Group A Strep; 2007-73 Group A Strep, the 8th table): 0.25 µg/mL (≈ 0.173 µM)
MIC (Group A Strep; 2007-107 Group A Strep, the 8th table): 0.25 µg/mL (≈ 0.173 µM)
MIC (Group A Strep; 2007-1101 Group A Strep, the 8th table): 0.25 µg/mL (≈ 0.173 µM)
MIC (Group A Strep; 2008-06 Group A Strep, the 8th table): 0.25 µg/mL (≈ 0.173 µM)
MIC (Group A Strep; 2008-45 Group A Strep, the 8th table): 0.25 µg/mL (≈ 0.173 µM)
MIC (Group A Strep; 2008-818 Group A Strep, CA-MHB w/5% LHB, the 4th table): 0.25 µg/mL (≈ 0.173 µM)
MIC (Group A Strep; 2008-1565 Group A Strep, the 8th table): 0.25 µg/mL (≈ 0.173 µM)
MIC (Group A Strep; 2008-1692 Group A Strep, the 8th table): 0.25 µg/mL (≈ 0.173 µM)
MIC (Group A Strep; 2009-8 Group A Strep, the 8th table): 0.25 µg/mL (≈ 0.173 µM)
MIC (Group A Strep; 2009-37 Group A Strep, CA-MHB w/5% LHB, the 4th table): 0.25 µg/mL (≈ 0.173 µM)
MIC (Group A Strep; 2009-106 Group A Strep, the 8th table): 0.25 µg/mL (≈ 0.173 µM)
MIC (Group A Strep; 2009-109 Group A Strep, the 8th table): 0.25 µg/mL (≈ 0.173 µM)
MIC (Group A Strep; 2009-114 Group A Strep, the 8th table): 0.25 µg/mL (≈ 0.173 µM)
MIC (Group A Strep; 2009-136 Group A Strep, the 8th table): 0.25 µg/mL (≈ 0.173 µM)
MIC (Group B Strep; 2008-57 Group B Strep, the 9th table): 0.5 µg/mL (≈ 0.345 µM)
MIC (Group B Strep; 2008-70 Group B Strep, the 9th table): 0.5 µg/mL (≈ 0.345 µM)
MIC (Group B Strep; 2008-87 Group B Strep, CA-MHB w/5% LHB, the 4th table): 0.5 µg/mL (≈ 0.345 µM)
MIC (Group B Strep; 2008-115 Group B Strep, the 9th table): 0.5 µg/mL (≈ 0.345 µM)
MIC (Group B Strep; 2009-20 Group B Strep, the 9th table): 0.5 µg/mL (≈ 0.345 µM)
MIC (Group B Strep; 2009-40 Group B Strep, the 9th table): 0.5 µg/mL (≈ 0.345 µM)
MIC (Group B Strep; 2009-43 Group B Strep, the 9th table): 0.5 µg/mL (≈ 0.345 µM)
MIC (Group B Strep; 2009-51 Group B Strep, the 9th table): 0.5 µg/mL (≈ 0.345 µM)
MIC (Group B Strep; 2009-57 Group B Strep, the 9th table): 0.5 µg/mL (≈ 0.345 µM)
MIC (Group B Strep; 2009-59 Group B Strep, the 9th table): 0.5 µg/mL (≈ 0.345 µM)
MIC (Group B Strep; 2009-60 Group B Strep, the 9th table): 0.5 µg/mL (≈ 0.345 µM)
MIC (Group B Strep; 2009-61 Group B Strep, CA-MHB w/5% LHB, the 4th table): 0.5 µg/mL (≈ 0.345 µM)
MIC (Group B Strep; 2009-62 Group B Strep, CA-MHB w/5% LHB, the 4th table): 0.5 µg/mL (≈ 0.345 µM)
MIC (Group B Strep; J4182 Group B Strep, the 9th table): 0.25 µg/mL (≈ 0.173 µM)
MIC (Group B Strep; J4183 Group B Strep, the 9th table): 0.5 µg/mL (≈ 0.345 µM)
MIC (Group B Strep; J4185 Group B Strep, the 9th table): 0.5 µg/mL (≈ 0.345 µM)
MIC (Group B Strep; J4186 Group B Strep, the 9th table): 0.5 µg/mL (≈ 0.345 µM)
MIC (Group B Strep; J4222 Group B Strep, the 9th table): 0.5 µg/mL (≈ 0.345 µM)
MIC (E. coli; AR-137 E. coli, the 4th table): >64 µg/mL
MIC (E. coli; Escherichia coli): > 64 µg/mL
MIC (E. coli; Escherichia coli, ATCC25922): > 64 µg/mL
